Source: patent US6528489B1, “Mycotoxin derivatives as antimitotic agents” (Ergon Pharmaceuticals LLC, priority 1999, dated 2003)

Key:
VEGF-stimulated HUVECs = assay: VEGF-induced migration of human endothelial cells (modified Boyden chamber); format: cell-based; details: 5 ng/ml VEGF, six hours
From the text: A migration assay familiar to those skilled in the art using vascular endothelial growth factor (VEGF)-stimulated HUVECs was employed to determine the effect of aurovertin B on endothelial cell migration.
The endothelial cells were routinely cultured as previously described.
Modified Boyden chambers in a 48-well format consisting of upper and lower wells separated by an 8-microns pore polycarbonate filter coated with collagen were used to study VEGF-induced migration of HUVECs (Paragon Bioservices, Baltimore, Md.). The endothelial cells were added to the lower wells and the migrating factor (5 ng/ml VEGF) was added to the upper wells. HUVECs were allowed to migrate from the lower to the upper wells for six hours at 37° C., 5% CO2. At the end of the incubation period, the filters were removed and washed gently. The cells on the filters were then fixed, stained with hematoxylin, and counted with a light microscope. The values obtained represent the mean of ten fields.

[1] = tested on: murine B16F10 melanoma tumors; assay: Growth of murine B16F10 melanoma tumors in C57 mice; format: in vivo; details: 2 mg/kg i.p. every day for 9 days
Method: The effect of aurovertin B and efrapeptin D on the growth of murine B16F10 melanoma tumors (ATCC, Rockville, Md.) was investigated. Groups of four C57 mice (The Jackson Laboratory, BarHarbor, Me.) were injected subcutaneously with 5×10^4 B16F10 cells (The Jackson Laboratory, BarHarbor, Me.). The mice were subsequently treated i.p. with 2 mg/kg aurovertin B, 0.4 mg/kg efrapeptin D, or vehicle control. The treatment was initiated three days after the tumor inoculation and continued every day for 9 days. The tumor growth was recorded at the end of the experiment.

bFGF-stimulated HUVECs = assay: bFGF-induced proliferation of human endothelial cells (HUVEC proliferation assay); format: cell-based; details: 20 ng/ml bFGF, 48 hours, read-out: IC50 of Antiproliferative Effect
From the text: Proliferation assays familiar to those skilled in the art using human umbilical vein endothelial cells (HUVECs) were employed in order to determine the effect of various antibiotics on the growth of bFGF-stimulated HUVECs.
The materials for this experiments included endothelial cells (HUVECS) and media for their proliferation (Media 200, fetal bovine serum (FBS), gelatin, bFGF) (Paragon Bioservices, Baltimore, Md.), and Cell Titer 96 for detection of cell proliferation (Paragon Bioservices, Baltimore, Md.). Antibiotics aurovertin B, citreoviridin, oligomycin A, oligomycin B, oligomycin C, and efrapeptin D were all obtained from Sigma Chemical Company (St. Louis, Mo.).
HUVECs were routinely cultured to confluency in Media 200 containing 10% FBS. The cells were then trypsinized and plated in a 96-well plate pre-coated with 1% gelatin at 5000 cells per well per 100 μL Media 200 containing 2% FBS. The cells were allowed to adhere for 24 hours. Subsequently, the media were aspirated and fresh Media 200 containing 0.5% FBS were added to the wells. Addition of various concentrations of antibiotics in the presence and absence of 20 ng/ml bFGF followed. The assay plates were incubated at 37° C., 5% CO2 for 48 hours. At the end of the incubation period, cell proliferation was determined using cell counting (Cell Counter Model Z1, Coulter Incorporation, Miami, Fla.) or spectrophotometry. In the later case, the assay plates were incubated with Cell Titer 96 for 2 hours and the absorbance was recorded at 490 nm.

| Structure (SMILES) | inhibition of VEGF-induced migration of HUVECs (in words) (VEGF-stimulated HUVECs) | mice that exhibited measurable, growing tumors at the end of the treatment [1] [%] | Number of mice that developed measurable tumors/Number of mice injected with tumor cells ([1]; started three days after tumor inoculation) | IC50 (bFGF-stimulated HUVECs) [µM] |
| --- | --- | --- | --- | --- |
| CC[C@H]1O[C@]2(C)[C@H](OC(C)=O)[C@@]1(C)O[C@@H](/C=C/C=C/C=C/c1oc(=O)cc(OC)c1C)[C@@H]2O [Aurovertin, aurovertin B] | inhibited VEGF-induced migration of HUVECs | 50 | 2/4 | 10 |
| COc1cc(=O)oc(/C=C/C=C/C=C/C(C)=C/[C@@]2(C)O[C@H](C)[C@](C)(O)[C@H]2O)c1C [Citreoviridin, citreoviridin] | – | – | – | 10 |
| CC[C@@H]1/C=C/C=C/C[C@H](C)[C@H](O)[C@](C)(O)C(=O)[C@H](C)[C@@H](O)[C@H](C)C(=O)[C@H](C)[C@@H](O)[C@H](C)/C=C/C(=O)O[C@H]2[C@@H](C)[C@@H](CC1)O[C@@]1(CC[C@@H](C)[C@@H](C[C@H](C)O)O1)[C@@H]2C [Oligomycin A, oligomycin A] | – | – | – | 5 |
| CC[C@H]1/C=C/C=C/C[C@@H](C)[C@H](O)[C@@](C)(O)C(=O)[C@@H](C)[C@H](O)[C@@H](C)C(=O)[C@@H](C)[C@H](O)[C@@H](C)/C=C/C(=O)O[C@@H]2[C@H](C)[C@H](CC1)O[C@@]1(O[C@@H](C[C@@H](C)O)[C@@H](C)CC1=O)[C@H]2C [Oligomycin B, oligomycin B] | – | – | – | 5 |
| CC[C@@H]1C=CC=CC[C@H](C)[C@@H](O)[C@@H](C)C(=O)[C@H](C)[C@@H](O)[C@H](C)C(=O)[C@H](C)[C@@H](O)[C@H](C)C=CC(=O)O[C@H]2[C@@H](C)[C@@H](CC1)O[C@@]1(CC[C@@H](C)[C@@H](C[C@H](C)O)O1)[C@@H]2C [Oligomycin C, oligomycin C] | – | – | – | 5 |
